In assay [1] the target is T1, Tyrosine-protein phosphatase non-receptor type 1 (Homo sapiens, UniProt P18031).
T1 sequence (P18031 whole entry): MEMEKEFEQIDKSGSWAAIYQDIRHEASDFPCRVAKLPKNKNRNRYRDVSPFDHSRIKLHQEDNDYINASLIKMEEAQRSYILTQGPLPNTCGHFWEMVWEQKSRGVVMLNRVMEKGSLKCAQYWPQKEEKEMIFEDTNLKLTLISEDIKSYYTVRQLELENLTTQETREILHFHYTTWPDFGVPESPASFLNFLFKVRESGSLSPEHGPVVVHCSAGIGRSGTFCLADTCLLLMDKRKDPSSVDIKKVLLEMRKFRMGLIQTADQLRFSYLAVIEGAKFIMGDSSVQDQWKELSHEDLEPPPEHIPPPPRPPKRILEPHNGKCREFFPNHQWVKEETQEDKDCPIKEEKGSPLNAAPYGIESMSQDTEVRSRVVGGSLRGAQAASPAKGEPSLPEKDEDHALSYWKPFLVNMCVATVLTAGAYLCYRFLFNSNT
Kind of assay: Compound was evaluated for the binding affinity against protein-tyrosine phosphatase 1B (PTP1B).

The target in assay [2] is T1, Tyrosine-protein phosphatase non-receptor type 1. Briefly: Compound concentration that cause 50% inhibition of protein-tyrosine phosphatase 1B (PTP1B).

Peptide text beside a SMILES is read from it. * marks the point of attachment. X1 = O=C(O)C(C(=O)O)*

The term Ki denotes a dissociation constant, usually derived from enzyme kinetics or from competition with a known ligand. Broadly, the IC50 is the concentration at which inhibition is half-maximal. Lower therefore signals inhibition by little substance.

Compound `CC(C)C[C@@H]1NC(=O)[C@H](Cc2ccc(OC(F)(C(=O)O)C(=O)O)cc2)NC(=O)[C@@H](CCC(=O)O)NC(=O)[C@H](CC(=O)O)NC(=O)[C@@H](C)NC(=O)[C@H](CC(=O)O)NC(=O)CSCC(C(N)=O)NC1=O` (some centres undefined) displayed a Ki in assay [1] of 0.17 µM.
Consider `N[C@@H](Cc1ccc(OC(C(=O)O)C(=O)O)cc1)C(=O)O`, for which, in assay [2], the IC50 stood at 10 µM.
With `CC(=O)N[C@@H](CC(=O)O)C(=O)N[C@@H](C)C(=O)N[C@@H](CC(=O)O)C(=O)N[C@@H](CCC(=O)O)C(=O)N[C@@H](Cc1ccc(OC(C(=O)O)C(=O)O)cc1)C(=O)N[C@@H](CC(C)C)C(N)=O` (Ac-DADEY(X1)L-NH2), the inhibition constant (Ki) in assay [1] stood at 13 µM.
`N[C@@H](Cc1ccc(OC(F)(C(=O)O)C(=O)O)cc1)C(=O)O` [FLUOROMALONYL TYROSINE] registered an IC50 in assay [2] of 1 µM.

(Values after ChEMBL document CHEMBL1130924, “Potent inhibition of protein-tyrosine phosphatase-1B using the phosphotyrosyl mimetic fluoro-O-malonyl tyrosine (FOMT)” (Bioorg Med Chem Lett, 1998).)
